Data: patent publication US11084826B2, “RSV antiviral pyrazolo- and triazolo-pyrimidine compounds” (Janssen Sciences Ireland Unlimited Company, priority 2015, dated 2021)

Key:
[1] = Cytotoxicity in HeLa cells, ATP content measured with the ATPlite kit; format: cell-based; conditions: human, TOX HELA pCC50
rgRSV224 virus = assay: Antiviral activity: inhibition of rgRSV224 (GFP-expressing RSV) replication in HeLa cells, GFP expression read-out; format: cell-based, respiratory syncytial virus (RSV); conditions: human respiratory syncytial virus, HeLa, read-out: RSV HELA pEC50, rgRSV224 virus (MOI=1) in HeLa cells, GFP read-out (converted)
Outline: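 HeLa cells (3,000/well) were infected with GFP-expressing rgRSV224 (MOI=1) in the presence of 9 serial 4-fold compound dilutions (0.05% DMSO) and incubated at 37° C, 5% CO2. After three days, GFP expression was measured by laser microscopy. EC50 is the concentration giving 50% inhibition of GFP expression.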

SMILES	CC50 at 3 days [1]	melting point	EC50 (rgRSV224 virus)
CNc1cc(C(=O)N2CCCCCC2C)nc2cc(-c3ccc(C#N)cc3F)nn12 (stereo not drawn) [Compound H1]	> 25100 nM	219 to 220 °C	562 nM
C[C@@H]1CCCCCN1C(=O)c1cc(-c2cnn(C)c2)n2nc(-c3ccc(/C=C/C(=O)O)cc3F)cc2n1 [Compound M30]	28200 nM	163 °C	40.7 nM
CC1CCCCCN1C(=O)c1cc(N(C)C2CCCCC2)n2nc(-c3ccc(NC(=O)C4CC4)cc3)cc2n1 (stereo not drawn) [Compound E19]	> 100000 nM	261 to 262 °C	537 nM
CCc1cc(C(=O)N2CCCCCC2C)nc2cc(-c3ccc(NC(=O)Cc4ccncc4)cc3F)nn12 (stereo not drawn) [Compound E2]	> 25100 nM	195 to 200 °C	93.3 nM
CCc1cc(C(=O)N2CCCCCCC2C)nc2cc(-c3ccc(NC(=O)NCC4CCCO4)cc3F)nn12 (stereo not drawn) [Compound B3]	> 25100 nM	195 to 200 °C	79.4 nM
CC1c2ccccc2CCN1C(=O)c1cc(N(C)C)n2nc(-c3ccc(/C=C/C(=O)O)cc3F)cc2n1 (stereo not drawn) [Compound M10]	20000 nM	243 to 245 °C	47.9 nM
C[C@@H]1CCCCCN1C(=O)c1cc(C2CCC2)n2nc(-c3cccc(/C=C/C(=O)O)c3F)cc2n1 [Compound M23]	> 100000 nM	231.54 °C	44.7 nM
CCCC(=O)Nc1ccc(-c2cc3nc(C(=O)N4CCCCCC4C)cc(CC)n3n2)cc1 (stereo not drawn) [Compound E20]	> 25100 nM	268 to 270 °C	692 nM
CCc1cc(C(=O)N2CCCCCC2C)nc2cc(-c3ccc(NC(=O)CCC(=O)O)cc3F)nn12 (stereo not drawn) [Compound E24]	> 25100 nM	225 to 230 °C	282 nM
CCc1cc(C(=O)N2CCc3sccc3C2C)nc2cc(-c3ccc(-c4ccc(C(=O)O)cn4)cc3F)nn12 (racemic) [Compound F60]	> 25100 nM	270.54 °C	45.7 nM
CCc1cc(C(=O)N2CCCCCC2C)nc2cc(-c3ccc(NC(=O)CCC(=O)NC)cc3F)nn12 (stereo not drawn) [Compound E27]	> 25100 nM	215 to 220 °C	117 nM
CCc1cc(C(=O)N2CCCCCC2C)nc2cc(-c3ccc4[nH]cnc4c3)nn12 (stereo not drawn) [Compound A13]	> 25100 nM	145 to 150 °C	331 nM
CC1CCCCCN1C(=O)c1cc(N2CCCCC2)n2nc(-c3ccc(NC(=O)C4CC4)cc3)cc2n1 (stereo not drawn) [Compound E18]	> 25100 nM	299 to 300 °C	1260 nM
CCc1cc(C(=O)N2CCCCC[C@H]2C)nc2cc(-c3ccc(N(C)c4ccc(C(=O)O)cn4)cc3F)nn12 (racemic) [Compound W20]	63100 nM	132 °C	355 nM
CCc1cc(C(=O)N2CCCCCC2C)nc2cc(-c3c(F)cc(C(N)=O)cc3F)nn12 (stereo not drawn) [Compound I27]	> 25100 nM	160 to 165 °C	251 nM
CCc1cc(C(=O)N2CCCCCC2C)nc2cc(-c3ccc(B(O)O)cc3F)nn12 (stereo not drawn) [Compound G1]	> 25100 nM	195 to 200 °C	282 nM
CCc1cc(C(=O)N2CCCCC[C@H]2C)nc2cc(-c3ccc([C@@H]4C[C@@H]4C(=O)O)cc3F)nn12 (racemic) [Compound O16]	> 100000 nM	333.46 °C	170 nM
CCc1cc(C(=O)N2CCCCCC2C)nc2cc(-c3ccc4[nH]ccc4c3)nn12 (stereo not drawn) [Compound A7]	> 25100 nM	195 to 197 °C	589 nM
CCc1cc(C(=O)N2CC[C@@H]3CCCC[C@@H]3[C@H]2C)nc2cc(-c3ccc(/C=C/C(=O)O)cc3F)nn12 (racemic) [Compound M50]	46800 nM	184.15 °C	191 nM
CCc1cc(C(=O)N2CCCCCC2C)nc2cc(-c3cc4cccnc4cc3F)nn12 (stereo not drawn) [Compound A24]	> 25100 nM	145 to 150 °C	302 nM

SMILES	CC50 at 3 days [1]	melting point	EC50 (rgRSV224 virus)
CCc1cc(C(=O)N2CCCCCC2C)nc2cc(-c3ccc(C(=O)NCCN(C)C)cc3F)nn12 (stereo not drawn) [Compound L2]	> 25100 nM	178 °C	550 nM
CCc1cc(C(=O)N2CCCCCC2C)nc2cc(-c3ccc(/C=C/C(=O)O)cc3F)nn12 (stereo not drawn) [Compound M1]	> 25100 nM	205 to 210 °C	174 nM
CCc1cc(C(=O)N2CCCCCCC2C)nc2cc(-c3ccc(C(=O)O)cc3F)nn12 (stereo not drawn) [Compound K4]	> 25100 nM	133 to 134 °C	275 nM
CCCC(C)N(C)C(=O)c1cc(CC)n2nc(-c3ccc(C(N)=O)cc3)cc2n1 (stereo not drawn) [Compound A28]	> 25100 nM	140 to 145 °C	794 nM
CC1CCCCCN1C(=O)c1cc(N(C)C)n2nc(-c3ccc(C(N)=O)cc3F)cc2n1 (stereo not drawn) [Compound I30]	> 25100 nM	215 to 216 °C	240 nM
CCc1cc(C(=O)N2CCCCC[C@H]2C)nc2cc(-c3ccc(N4CC[C@@H](C(=O)O)C4)cc3F)nn12 [Compound W6]	69200 nM	214.84 °C	81.3 nM
CCc1cc(C(=O)N2CCCCC[C@H]2C)nc2cc(-c3ccc(-c4ccc(C(=O)O)cn4)cc3F)nn12 [Compound F15]	> 25100 nM	181 to 182 °C	120 nM
CCc1cc(C(=O)N2CCCCC[C@H]2C)nc2cc(-c3ccc(C#N)cc3F)nn12 [Compound H4]	> 25100 nM	96 °C	661 nM
CCc1cc(C(=O)N2CCCCCC2C)nc2cc(-c3ccc(NC(=O)CCC(=O)N(C)C)cc3F)nn12 (stereo not drawn) [Compound E28]	> 25100 nM	180 to 185 °C	117 nM
CCc1cc(C(=O)N2CCCCCC2C)nc2c(Cl)c(-c3ccc(NC(=O)C4CC4)cc3F)nn12 (stereo not drawn) [Compound E13]	> 25100 nM	245 to 250 °C	1480 nM
CCc1cc(C(=O)N2CCc3c([nH]c4ccccc34)C2C)nc2cc(-c3ccc(C(N)=O)cc3F)nn12 (stereo not drawn) [Compound I38]	> 25100 nM	205 to 210 °C	1780 nM
C[C@@H]1CCCCCN1C(=O)c1cc(N(C)C)n2nc(-c3ncc(/C=C/C(=O)O)cc3Cl)cc2n1 [Compound M12]	> 25100 nM	197 to 199 °C	4070 nM
CCc1cc(C(=O)N2CCCc3ccccc3C2C)nc2cc(-c3ccc(C(=O)O)cc3F)nn12 (stereo not drawn) [Compound K8]	> 25100 nM	105 to 110 °C	437 nM
CCc1cc(C(=O)N2CCCCCC2C)nc2cc(-c3ccc(NC(=O)CC#N)cc3F)nn12 (stereo not drawn) [Compound E6]	> 25100 nM	245 to 250 °C	166 nM
CC1CCCCCN1C(=O)c1cc(C(F)(F)F)n2nc(-c3ccc(C(N)=O)cc3F)cc2n1 (stereo not drawn) [Compound I31]	> 25100 nM	238 to 240 °C	141 nM
CCc1cc(C(=O)N2CCCCCC2C)nc2cc(-c3ccc(NC(=O)NCC4CCCO4)cc3C)nn12 (stereo not drawn) [Compound B4]	55000 nM	123 °C	257 nM
CCc1cc(C(=O)N2CCCCC2C)nc2cc(-c3ccc(-c4ccncc4)cc3)nn12 (stereo not drawn) [Compound F1]	38000 nM	150 to 151 °C	871 nM
CCc1cc(C(=O)N2CCc3ccccc3C2C)nc2cc(-c3ccc(/C=C/C(=O)O)cc3F)nn12 (stereo not drawn) [Compound M11]	> 25100 nM	225 to 230 °C	38 nM
CCc1cc(C(=O)N2CCCCCC2C)nc2cc(-c3ccc(NC(=O)OCC4CCCN4C)cc3F)nn12 (stereo not drawn) [Compound C5]	13800 nM	165 to 170 °C	178 nM
